From patent US20130260365A1, “HIGHLY EFFICIENT PROCESS FOR PRODUCING BIOETHANOL” (HONDA MOTOR CO., LTD., priority 2012, published 2013) come the findings set out here.

Molecules are shown by their SMILES.

Broadly, the inhibition is the relative decrease from the control value, in per cent.

Assay [1] concerns fermentative microorganism cell (yeast). Conditions: for growth inhibition of fermentative microorganism cell: acetic acid 1000 or 500 mg/L, or formic acid 400 mg/L, added to reagent sugar solution, after 24 hours, compared with no organic acid added.
For assay [2] the test system is unchanged. The assay is described as follows: microbe, parasite or virus in culture. Conditions: Saccharomyces cerevisiae, 24 h, read-out: Growth inhibition (%). The method, then:
Sugar solutions to which acetic acid or formic acid was added were prepared for comparison with a reagent sugar solution containing no organic acid, and the fermentative microorganism cell of the same count was added to each sugar solution and cultured. At this time, the pHs of the reagent sugar solutions were adjusted to be the same. The absorbance of the microorganic counts was measured 24 hours later. Using the sugar solution to which acetic acid or formic acid was not added as the criterion, the degrees of growth inhibition are shown below.

Assay [3] deals with fermentative microorganism cell. Conditions: acetic acid added to give 17.79 mM vs sugar solution without acetic acid.
Protocol: A model experiment was subsequently carried out. After 72 hours from feeding a microorganism cell to a rice straw sugar solution at 50° C.

Regarding `CC(=O)O` [Acetic acid, acetic acid], in assay [1] (3000 mg/L of acetic acid added to the reagent sugar solution), the “growth of the fermentative microorganism cell” value is “no growth”. The “growth inhibition of fermentative microorganism cell” value in assay [1] is given as “growth inhibition of fermentative microorganism cell was observed”. Also, in assay [2], the inhibition at 5900 µM worked out at 10.4%, the inhibition at 11900 µM was 28.8% and the inhibition at 17800 µM worked out at 75.3%. Also, the “microorganic growth (absorbance)” value in assay [3] is given as “evidently poorer”.

As to `O=CO` [Formic acid, formic acid], the “growth inhibition of fermentative microorganism cell” value in assay [1] is on record as “growth inhibition of fermentative microorganism cell was observed”. For the same compound, in assay [2], the inhibition at 10000 µM came out at 5.6%, the inhibition at 20000 µM is 61.1% and the inhibition at 30000 µM amounted to 71.4%.
